Read-outs that look alike come from different tables or passages of the source.
How the values were obtained:
[1] = system: pSer473-Akt in A2780 cells; test: pSer473 Akt assay to monitor PI3K pathway in A2780 cells (MSD); assay type: cell-based; conditions: Homo sapiens, A2780 cells
How it was run: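 EC50 is derived from percent inhibition of Akt Ser473 phosphorylation, normalised to total Akt and compared with DMSO-only wells, read by MSD immunoassay. Lysates came from A2780 cells plated overnight at 15,000/well and exposed to compound for one hour at 37 °C.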

[2] = system: A2780 cells; test: Viability assay in A2780 (Cell Titer Glo); assay type: cell-based, human; conditions: Homo sapiens, A2780 cells, read-out: A2780 Cell prolif. EC50
How it was run: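 EC50 values come from Cell Titer Glo luminescence after 72 hrs of compound exposure at 37° C, run in duplicate. A2780 cells were plated at 1,000 per well in DMEM with 10% FBS and dosed with 3-fold serial dilutions.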

[3] = biological target: PI3 K Alpha (Homo sapiens, UniProt P42336); test: PI3 kinase phosphorylation assays (homogenous solution phase, one step solid phase, ATP depletion/KinaseGlo); assay type: biochemical
Sequence of PI3 K Alpha (P42336 whole entry): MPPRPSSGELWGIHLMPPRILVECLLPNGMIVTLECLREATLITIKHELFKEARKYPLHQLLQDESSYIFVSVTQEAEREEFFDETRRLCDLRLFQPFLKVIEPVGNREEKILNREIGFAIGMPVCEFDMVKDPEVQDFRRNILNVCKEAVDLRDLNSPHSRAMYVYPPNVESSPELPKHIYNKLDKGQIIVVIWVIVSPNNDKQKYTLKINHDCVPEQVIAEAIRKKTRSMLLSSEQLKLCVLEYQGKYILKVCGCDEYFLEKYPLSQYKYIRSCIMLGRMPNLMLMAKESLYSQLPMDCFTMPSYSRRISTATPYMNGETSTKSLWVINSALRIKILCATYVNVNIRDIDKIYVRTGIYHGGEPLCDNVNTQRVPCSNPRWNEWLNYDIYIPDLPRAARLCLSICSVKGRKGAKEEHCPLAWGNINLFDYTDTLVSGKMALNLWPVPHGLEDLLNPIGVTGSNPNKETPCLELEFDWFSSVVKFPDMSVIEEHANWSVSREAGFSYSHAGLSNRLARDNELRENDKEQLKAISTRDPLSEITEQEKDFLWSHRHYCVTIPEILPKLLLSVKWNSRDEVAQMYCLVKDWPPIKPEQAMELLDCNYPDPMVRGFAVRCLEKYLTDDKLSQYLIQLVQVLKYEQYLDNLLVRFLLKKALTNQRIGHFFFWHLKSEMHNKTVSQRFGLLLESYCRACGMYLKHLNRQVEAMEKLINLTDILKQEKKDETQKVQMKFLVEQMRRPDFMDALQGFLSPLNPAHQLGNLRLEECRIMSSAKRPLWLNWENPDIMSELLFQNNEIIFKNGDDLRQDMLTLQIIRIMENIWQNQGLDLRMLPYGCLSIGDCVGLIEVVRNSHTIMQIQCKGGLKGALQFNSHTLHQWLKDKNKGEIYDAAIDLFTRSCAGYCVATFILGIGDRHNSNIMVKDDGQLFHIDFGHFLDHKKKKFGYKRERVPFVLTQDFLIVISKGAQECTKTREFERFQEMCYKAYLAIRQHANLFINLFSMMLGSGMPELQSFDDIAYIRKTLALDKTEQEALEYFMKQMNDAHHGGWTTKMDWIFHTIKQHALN
Sequence of PI3 K Alpha (P27986 whole entry partner): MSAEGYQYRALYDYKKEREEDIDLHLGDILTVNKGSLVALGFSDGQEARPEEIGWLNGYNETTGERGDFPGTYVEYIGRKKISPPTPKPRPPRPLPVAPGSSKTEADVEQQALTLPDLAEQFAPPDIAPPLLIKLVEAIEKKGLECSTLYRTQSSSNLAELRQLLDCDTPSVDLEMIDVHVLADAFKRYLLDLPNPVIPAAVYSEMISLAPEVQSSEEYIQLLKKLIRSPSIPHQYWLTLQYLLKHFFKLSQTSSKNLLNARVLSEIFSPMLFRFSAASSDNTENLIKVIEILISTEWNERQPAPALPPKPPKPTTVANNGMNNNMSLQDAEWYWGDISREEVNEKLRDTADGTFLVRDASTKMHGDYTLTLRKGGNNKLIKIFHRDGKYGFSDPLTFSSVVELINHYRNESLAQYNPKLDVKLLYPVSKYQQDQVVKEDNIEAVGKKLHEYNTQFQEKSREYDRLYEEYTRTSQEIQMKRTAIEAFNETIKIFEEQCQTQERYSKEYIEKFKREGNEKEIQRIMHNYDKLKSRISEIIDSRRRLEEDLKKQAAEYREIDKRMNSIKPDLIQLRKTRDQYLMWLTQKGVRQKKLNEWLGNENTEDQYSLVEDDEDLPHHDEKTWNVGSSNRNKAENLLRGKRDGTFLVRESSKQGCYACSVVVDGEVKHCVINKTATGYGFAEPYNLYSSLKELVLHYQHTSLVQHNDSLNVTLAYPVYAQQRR

[4] = 1 h, one hour incubation, read-out: A2780 pAKT473 EC50
[5] = ATP depletion assay, read-out: PI3 K Alpha IC50

Structure (SMILES)	EC50 ([1]; read-out: A2780 pAKT 473 EC50) [µM]	EC50 [2] [µM]	IC50 ([3]; read-out: PI3K Alpha IC50) [µM]	EC50 [1, 4] [µM]	EC50 ([2]; 72 hrs) [µM]	IC50 [3, 5] [µM]
Nc1ncc(-c2ccc3nc(NC(=O)CCCO)cn3c2)cc1C(F)(F)F [Example 27, N-[6-(6-Amino-5-trifluoromethyl-pyridin-3-yl)-imidazo[1,2-a]pyridin-2-yl]-4-hydroxy-butyramide]	< 1	< 10	< 1	–	–	–
CC(C)(C)OC(=O)N1CC[C@H](OCC(=O)Nc2cn3nc(-c4cnc(N)c(C(F)(F)F)c4)ccc3n2)C1 [Example 98, (S)-tert-butyl 3-(2-(6-(6-amino-5-(trifluoromethyl)pyridin-3-yl)imidazo[1,2-b]pyridazin-2-ylamino)-2-oxoethoxy) pyrrolidine-1-carboxylate]	< 1	< 1	< 1	–	–	–
NCC(=O)Nc1cn2nc(-c3cnc(N)c(C(F)(F)F)c3)ccc2n1 [Example 77, 2-amino-N-(6-(6-amino-5-(trifluoromethyl)pyridin-3-yl)imidazo[1,2-b]pyridazin-2-yl)acetamide]	< 1	< 1	< 1	–	–	–
CC(=O)Nc1cn2c(C)c(-c3cnc(N)c(C(F)(F)F)c3)ccc2n1 [Example 194, N-(6-(6-amino-5-(trifluoromethyl)pyridin-3-yl)-5-methylimidazo[1,2-a]pyridin-2-yl)acetamide]	< 10	< 10	< 1	–	–	–
CC(=O)Nc1cn2cc(-c3cnc(N)c(Cl)c3)ccc2n1 [Example 188, N-(6-(6-amino-5-chloropyridin-3-yl)imidazo[1,2-a]pyridin-2-yl)acetamide]	< 1	< 10	< 1	–	–	–
CC(C)(C)OC(=O)NCC(=O)Nc1cn2nc(-c3cnc(N)c(C(F)(F)F)c3)ccc2n1 [Example 135, tert-butyl 2-(6-(6-amino-5-(trifluoromethyl)pyridin-3-yl)imidazo[1,2-b]pyridazin-2-ylamino)-2-oxoethylcarbamate]	< 1	< 10	< 1	–	–	–
CC(=O)Nc1cn2cc(-c3cnc(N)c(-c4cccc(N5CCOCC5)c4)c3)ccc2n1 [Example 86, N-(6-(6-amino-5-(3-morpholino-phenyl)pyridin-3-yl)imidazo[1,2-a]pyridin-2-yl)acetamide]	< 1	< 1	< 1	–	–	–
CC(=O)Nc1nc2ccc(-c3cnc(N)c(C(F)(F)F)c3)cn2c1C#Cc1ccc(C)cc1 [Example 127, N-(6-(6-amino-5-(trifluoromethyl)pyridin-3-yl)-3-(p-tolylethynyl)imidazo[1,2-a]pyridin-2-yl)acetamide]	< 1	< 10	< 1	–	–	–
CCOc1nc(-c2ccc3nc(NC(C)=O)cn3n2)cnc1N [Example 184, N-(6-(5-amino-6-ethoxypyrazin-2-yl)imidazo[1,2-b]pyridazin-2-yl)acetamide]	< 1	< 10	< 1	–	–	–
Nc1ncc(-c2ccc3nc(NC(=O)CO[C@H]4CCNC4)cn3n2)cc1C(F)(F)F [Example 82, (S)-N-(6-(6-amino-5-(trifluoromethyl)pyridin-3-yl)imidazo[1,2-b]pyridazin-2-yl)-2-(pyrrolidin-3-yloxy)acetamide]	< 1	< 1	< 1	–	–	–
CNC(=O)c1ccc(-c2c(NC(C)=O)nc3ccc(-c4cnc(N)c(C(F)(F)F)c4)cn23)cc1 [Example 18, 4-[2-Acetylamino-6-(6-amino-5-trifluoromethyl-pyridin-3-yl)-imidazo[1,2-a]pyridin-3-yl]-N-methyl-benzamide]	< 10	< 25	< 1	–	–	–
COC(=O)Nc1nc2ccc(-c3ccc(N)nc3)cc2s1 [Example 2-3, [6-(6-Amino-pyridin-3-yl)-benzothiazol-2-yl]-carbamic acid methyl ester]	–	–	–	< 1	< 10	< 1
CC(=O)Nc1cn2nc(-c3cnc(N)c(-c4ccn(C)n4)c3)ccc2n1 [Example 95, N-(6-(6-amino-5-(1-methyl-1H-pyrazol-3-yl)pyridin-3-yl)imidazo[1,2-b]pyridazin-2-yl)acetamide]	< 1	< 1	< 1	–	–	–
CC(=O)Nc1cn2cc(-c3cnc(N)c(C#N)c3)ccc2n1 [Example 235, N-(6-(6-amino-5-cyanopyridin-3-yl)imidazo[1,2-a]pyridin-2-yl)acetamide]	< 10	< 10	< 1	–	–	–
CC(=O)Nc1cn2cc(-c3cnc(N)c(OC4CN(C(=O)OC(C)(C)C)C4)n3)ccc2n1 [Example 67, tert-butyl 3-(6-(2-acetamido-imidazo[1,2-a]pyridin-6-yl)-3-aminopyrazin-2-yloxy)axetidine-1-carboxylate]	< 1	< 1	< 1	–	–	–
CC(=O)Nc1nc2ccc(-c3cnc(N)cc3C)cc2s1 [Example 2-18, N-[6-(6-Amino-4-methyl-pyridin-3-yl)-benzothiazol-2-yl]-acetamide]	–	–	–	< 10	< 25	< 1
CC(=O)Nc1cn2cc(-c3cnc(N)c(/C=N/Nc4ccccc4)c3)ccc2n1 [Example 58, (E)-N-(6-(6-amino-5-((2-phenylhydrazono)methyl)pyridin-3-yl)imidazo[1,2-a]pyridin-2-yl)acetamide]	< 10	< 1	< 1	–	–	–
Nc1ncc(-c2ccc3nc(NC(=O)c4ccc(N5CCNCC5)nc4)cn3c2)cc1C(F)(F)F [Example 126, N-(6-(6-amino-5-(trifluoromethyl)pyridin-3-yl)imidazo[1,2-a]pyridin-2-yl)-6-(piperazin-1-yl)nicotinamide]	< 1	< 10	< 1	–	–	–
Nc1ncc(-c2ccc3nc(NC(=O)CCCN4CCCCC4)cn3n2)cc1C(F)(F)F [Example 71, N-(6-(6-amino-5-(trifluoromethyl)pyridin-3-yl)imidazo[1,2-b]pyridazin-2-yl)-4-(piperidin-1-yl)butanamide]	< 1	< 1	< 1	–	–	–
CNCC(=O)Nc1cn2nc(-c3cnc(N)c(C(F)(F)F)c3)ccc2n1 [Example 60, N-(6-(6-amino-5-(trifluoromethyl)pyridin-3-yl)imidazo[1,2-b]pyridazin-2-yl)-2-(methylamino) acetamide]	< 1	< 1	< 1	–	–	–
CCN(CC)C(=O)c1cc(-c2ccc3nc(NC(C)=O)cn3c2)cnc1N [Example 218, 5-(2-acetamido-imidazo[1,2-a]pyridin-6-yl)-2-amino-N,N-diethyl-nicotinamide]	< 1	< 10	< 1	–	–	–
CCN1CCN(CCCC(=O)Nc2cn3cc(-c4cnc(N)c(C(F)(F)F)c4)ccc3n2)CC1 [Example 206, N-(6-(6-amino-5-(trifluoromethyl)pyridin-3-yl)imidazo[1,2-a]pyridin-2-yl)-4-(4-ethylpiperazin-1-yl)butanamide]	< 1	< 10	< 1	–	–	–
COCC(=O)Nc1cn2nc(-c3cnc(N)c(C(F)(F)F)c3)ccc2n1 [Example 74, n-(6-(6-amino-5-(trifluoromethyl)pyridin-3-yl)imidazo[1,2-b]pyridazin-2-yl)-2-methoxyacetamide]	< 1	< 1	< 1	–	–	–
CC(=O)Nc1cn2nc(-c3cnc(N)c(C(=O)O)c3)ccc2n1 [Example 136, 5-(2-acetamido-imidazo[1,2-b]pyridazin-6-yl)-2-aminonicotinic acid]	< 25	< 25	< 1	–	–	–
CC(=O)Nc1cn2nc(-c3cnc(N)c(Cl)c3)ccc2n1 [Example 87, N-(6-(6-amino-5-chloropyridin-3-yl)imidazo[1,2-b]pyridazin-2-yl)acetamide]	< 1	< 1	< 1	–	–	–
CC(=O)Nc1cn2nc(-c3cnc(N)c(OC(F)F)c3)ccc2n1 [Example 72, N-(6-(6-amino-5-(difluoromethoxy)pyridin-3-yl)imidazo[1,2-b]pyridazin-2-yl)acetamide]	< 1	< 1	< 1	–	–	–
Nc1ncc(-c2ccc3nc(NC(=O)Cc4cccc5ccccc45)cn3c2)cc1C(F)(F)F [Example 110, N-(6-(6-amino-5-(trifluoromethyl)pyridin-3-yl)imidazo[1,2-a]pyridin-2-yl)-2-(naphthalen-1-yl)acetamide]	< 1	< 1	< 1	–	–	–
COC(=O)Nc1cn2cc(-c3cnc(N)c(C(F)(F)F)c3)ccc2n1 [Example 19, [6-(6-Amino-5-trifluoromethyl-pyridin-3-yl)-imidazo[1,2-a]pyridin-2-yl]-carbamic acid methyl ester]	< 1	< 10	< 1	–	–	–
CN(C)CCCC(=O)Nc1cn2nc(-c3cnc(N)c(C(F)(F)F)c3)ccc2n1 [Example 66, N-(6-(6-amino-5-(trifluoromethyl)pyridin-3-yl)imidazo[1,2-b]pyridazin-2-yl)-4-(dimethylamino) butanamide]	< 1	< 1	< 1	–	–	–
Nc1ncc(-c2ccc3nc(NC(=O)CCCN4CCCCC4)cn3c2)cc1C(F)(F)F [Example 25, N-[6-(6-Amino-5-trifluoromethyl-pyridin-3-yl)-imidazo[1,2-a]pyridin-2-yl]-4-piperidin-1-yl-butyramide]	< 1	< 10	< 1	–	–	–

— US20100075965A1, “PI3 KINASE INHIBITORS AND METHODS OF THEIR USE” (Novartis AG, priority 2006, published 2010)
